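96-well plates; 48 h exposure; 5 concentrations. Endpoints by linear interpolation between flanking doses. Not reached: highest tested concentration assigned. GI50 marks 50% less growth.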 Calls of active or inactive are those of the source. Cut-off read from the data, not from the text of the source: active = GI50 up to about 1.1 µM and inactive = higher.
Columns and labels:
Experiment in all cases: NCI-60 cell line screen, 48 h
786-0 = tested on: 786-0
A498 = tested on: A498
A549 = tested on: A549
ACHN = tested on: ACHN
CAKI-1 = tested on: CAKI-1
CCRF-CEM = tested on: CCRF-CEM
COLO 205 = tested on: COLO 205
DLD-1 = tested on: DLD-1
DMS-114 = tested on: DMS-114
DMS-273 = tested on: DMS-273
EKVX = tested on: EKVX
HCC 2998 = tested on: HCC 2998
HCT-116 = tested on: HCT-116
HCT-15 = tested on: HCT-15
HL-60 = tested on: HL-60
HOP-62 = tested on: HOP-62
HOP-92 = tested on: HOP-92
IGROV-1 = tested on: IGROV-1
K562 = tested on: K562
KM-20L2 = tested on: KM-20L2
KM12 = tested on: KM12
LOX IMVI = tested on: LOX IMVI
LXFL 529 = tested on: LXFL 529
M14 = tested on: M14
M19-MEL = tested on: M19-MEL
MOLT-4 = tested on: MOLT-4
Malme-3M = tested on: Malme-3M
NCI-H226 = tested on: NCI-H226
NCI-H23 = tested on: NCI-H23
NCI-H460 = tested on: NCI-H460
NCI-H522 = tested on: NCI-H522
OVCAR-3 = tested on: OVCAR-3
OVCAR-4 = tested on: OVCAR-4
OVCAR-5 = tested on: OVCAR-5
OVCAR-8 = tested on: OVCAR-8
RPMI-8226 = tested on: RPMI-8226
SF-268 = tested on: SF-268
SF-539 = tested on: SF-539
SK-MEL-28 = tested on: SK-MEL-28
SK-MEL-2 = tested on: SK-MEL-2
SK-MEL-5 = tested on: SK-MEL-5
SN12C = tested on: SN12C
SNB-19 = tested on: SNB-19
SNB-75 = tested on: SNB-75
SR = tested on: SR
SW-620 = tested on: SW-620
TK-10 = tested on: TK-10
U-251 = tested on: U-251
UACC-257 = tested on: UACC-257
UACC-62 = tested on: UACC-62
UO-31 = tested on: UO-31
XF498 = tested on: XF498
HT-29 = tested on: HT-29
RXF 393 = tested on: RXF 393
SF-295 = tested on: SF-295
SK-OV-3 = tested on: SK-OV-3
SNB-78 = tested on: SNB-78
HOP-18 = tested on: HOP-18

With `CC(C)OP(=O)(OC(C)C)/C(=N/Nc1ccc([N+](=O)[O-])cc1)NCCN/C(=N\Nc1ccc([N+](=O)[O-])cc1)P(=O)(OC(C)C)OC(C)C` the GI50 (786-0) was 9.86 µM (inactive), the GI50 (A498) was 3.7 µM (inactive) and the GI50 (A549) was 3.72 µM (inactive). For the same molecule, the GI50 (ACHN) was 3.56 µM (inactive), the GI50 (CAKI-1) was 3.58 µM (inactive) and the GI50 (CCRF-CEM) was 2.84 µM (inactive). For the same molecule, the GI50 (COLO 205) was 3.93 µM (inactive), the GI50 (DLD-1) was 4.71 µM (inactive) and the GI50 (DMS-114) was 3.85 µM (inactive). The GI50 (DMS-273) was 3.7 µM (inactive), the GI50 (EKVX) was 4.54 µM (inactive) and the GI50 (HCC 2998) was 5.4 µM (inactive). The GI50 (HCT-116) was 3.48 µM (inactive), the GI50 (HCT-15) was 4.61 µM and the GI50 (HL-60) was 3.94 µM (inactive). For the same molecule, the GI50 (HOP-62) was 6.01 µM (inactive), the GI50 (HOP-92) was 3.35 µM (inactive) and the GI50 (IGROV-1) was 2.31 µM (inactive). For the same molecule, the GI50 (K562) was 3.29 µM (inactive), the GI50 (KM-20L2) was 4.52 µM (inactive) and the GI50 (KM12) was 3.8 µM (inactive). For the same molecule, the GI50 (LOX IMVI) was 8.89 µM (inactive), the GI50 (LXFL 529) was 3.17 µM (inactive) and the GI50 (M14) was 14.8 µM (inactive). The GI50 (M19-MEL) was 5.85 µM (inactive), the GI50 (MOLT-4) was 3.31 µM (inactive) and the GI50 (Malme-3M) was 8.83 µM (inactive). For the same molecule, the GI50 (NCI-H226) was 3.94 µM (inactive), the GI50 (NCI-H23) was 2.31 µM (inactive) and the GI50 (NCI-H460) was 3.71 µM (inactive). The GI50 (NCI-H522) was 3.22 µM (inactive), the GI50 (OVCAR-3) was 3.62 µM (inactive) and the GI50 (OVCAR-4) was 7.19 µM (inactive). For the same molecule, the GI50 (OVCAR-5) was 31.6 µM (inactive), the GI50 (OVCAR-8) was 4.55 µM (inactive) and the GI50 (RPMI-8226) was 3.51 µM (inactive). The GI50 (SF-268) was > 100 µM (inactive), the GI50 (SF-539) was > 100 µM (inactive) and the GI50 (SK-MEL-28) was 31.3 µM (inactive). The GI50 (SK-MEL-2) was 4.92 µM (inactive), the GI50 (SK-MEL-5) was 6.22 µM (inactive) and the GI50 (SN12C) was 4.07 µM (inactive). For the same molecule, the GI50 (SNB-19) was 3.35 µM (inactive), the GI50 (SNB-75) was 5 µM (inactive) and the GI50 (SR) was 4.03 µM (inactive). The GI50 (SW-620) was 3.76 µM (inactive), the GI50 (TK-10) was 6.03 µM (inactive) and the GI50 (U-251) was 3.3 µM (inactive). The GI50 (UACC-257) was 6.61 µM (inactive), the GI50 (UACC-62) was 2.15 µM (inactive) and the GI50 (UO-31) was 4.4 µM (inactive). The GI50 (XF498) was 3.18 µM (inactive).

With `COc1cc(CC(C(=O)O)C(=O)O)c(OC)cc1CC(C(=O)O)C(=O)O` the GI50 (786-0) was > 100 µM (inactive), the GI50 (A498) was > 100 µM (inactive) and the GI50 (A549) was > 100 µM (inactive). The GI50 (CAKI-1) was > 100 µM (inactive), the GI50 (CCRF-CEM) was > 100 µM (inactive) and the GI50 (COLO 205) was > 100 µM (inactive). The GI50 (DLD-1) was > 100 µM (inactive), the GI50 (DMS-114) was > 100 µM (inactive) and the GI50 (DMS-273) was > 100 µM (inactive). The GI50 (EKVX) was > 100 µM (inactive), the GI50 (HCT-116) was > 100 µM (inactive) and the GI50 (HCT-15) was over 100 µM. The GI50 (HL-60) was > 100 µM (inactive), the GI50 (HOP-62) was > 100 µM (inactive) and the GI50 (HOP-92) was > 100 µM (inactive). For the same molecule, the GI50 (HT-29) was > 100 µM (inactive), the GI50 (IGROV-1) was > 100 µM (inactive) and the GI50 (K562) was > 100 µM (inactive). For the same molecule, the GI50 (KM-20L2) was > 100 µM (inactive), the GI50 (KM12) was > 100 µM (inactive) and the GI50 (LOX IMVI) was > 100 µM (inactive). For the same molecule, the GI50 (LXFL 529) was > 100 µM (inactive), the GI50 (M14) was > 100 µM (inactive) and the GI50 (M19-MEL) was > 100 µM (inactive). For the same molecule, the GI50 (MOLT-4) was > 100 µM (inactive), the GI50 (Malme-3M) was > 100 µM (inactive) and the GI50 (NCI-H226) was > 100 µM (inactive). The GI50 (NCI-H23) was > 100 µM (inactive), the GI50 (NCI-H460) was > 100 µM (inactive) and the GI50 (NCI-H522) was > 100 µM (inactive). The GI50 (OVCAR-3) was > 100 µM (inactive), the GI50 (OVCAR-4) was > 100 µM (inactive) and the GI50 (OVCAR-5) was > 100 µM (inactive). For the same molecule, the GI50 (OVCAR-8) was > 100 µM (inactive), the GI50 (RPMI-8226) was > 100 µM (inactive) and the GI50 (RXF 393) was > 100 µM (inactive). The GI50 (SF-268) was > 100 µM (inactive), the GI50 (SF-295) was > 100 µM (inactive) and the GI50 (SF-539) was > 100 µM (inactive). For the same molecule, the GI50 (SK-MEL-5) was > 100 µM (inactive), the GI50 (SK-OV-3) was > 100 µM (inactive) and the GI50 (SN12C) was > 100 µM (inactive). The GI50 (SNB-19) was > 100 µM (inactive), the GI50 (SNB-75) was > 100 µM (inactive) and the GI50 (SNB-78) was > 100 µM (inactive). The GI50 (SR) was > 100 µM (inactive), the GI50 (SW-620) was > 100 µM (inactive) and the GI50 (TK-10) was > 100 µM (inactive). For the same molecule, the GI50 (U-251) was > 100 µM (inactive), the GI50 (UACC-257) was > 100 µM (inactive) and the GI50 (UACC-62) was > 100 µM (inactive). For the same molecule, the GI50 (UO-31) was > 100 µM (inactive) and the GI50 (XF498) was > 100 µM (inactive).

With `CC(=O)Oc1cc(OC(C)=O)c2c(=O)c3ccccc3[nH]c2c1` the GI50 (A549) was 61.9 µM (inactive), the GI50 (ACHN) was 24.6 µM (inactive) and the GI50 (DLD-1) was 21.3 µM (inactive). For the same molecule, the GI50 (DMS-114) was 24.8 µM (inactive), the GI50 (DMS-273) was 45.4 µM (inactive) and the GI50 (HCT-116) was 56.8 µM (inactive). The GI50 (HCT-15) was 49.3 µM, the GI50 (HOP-18) was 10.5 µM (inactive) and the GI50 (HT-29) was 49.2 µM (inactive). The GI50 (IGROV-1) was 19.1 µM (inactive), the GI50 (KM12) was 37.8 µM (inactive) and the GI50 (LOX IMVI) was 39.4 µM (inactive). The GI50 (LXFL 529) was 26.9 µM (inactive), the GI50 (M19-MEL) was 31.9 µM (inactive) and the GI50 (MOLT-4) was 27.5 µM (inactive). The GI50 (Malme-3M) was 24.4 µM (inactive), the GI50 (NCI-H226) was 27.5 µM (inactive) and the GI50 (NCI-H23) was 27.2 µM (inactive). The GI50 (NCI-H460) was 33.3 µM (inactive), the GI50 (NCI-H522) was 24.8 µM (inactive) and the GI50 (OVCAR-3) was 16.2 µM (inactive). The GI50 (OVCAR-4) was 65.9 µM (inactive), the GI50 (OVCAR-8) was 32.9 µM (inactive) and the GI50 (RXF 393) was 58.3 µM (inactive). The GI50 (SF-268) was 50.5 µM (inactive), the GI50 (SF-295) was 32.7 µM (inactive) and the GI50 (SF-539) was 20.8 µM (inactive). The GI50 (SK-MEL-28) was 54.6 µM (inactive), the GI50 (SK-MEL-2) was 49.5 µM (inactive) and the GI50 (SK-MEL-5) was 18.9 µM (inactive). For the same molecule, the GI50 (SK-OV-3) was 13.9 µM (inactive), the GI50 (SN12C) was 36.5 µM (inactive) and the GI50 (SNB-19) was 70.1 µM (inactive). The GI50 (SNB-75) was 35.2 µM (inactive), the GI50 (SNB-78) was 57 µM (inactive) and the GI50 (TK-10) was 38.5 µM (inactive). The GI50 (UACC-257) was 28.1 µM (inactive), the GI50 (UACC-62) was 62.1 µM (inactive) and the GI50 (UO-31) was 12.5 µM (inactive). The GI50 (XF498) was 11.2 µM (inactive).

Source: ChEMBL document CHEMBL1201862, “PubChem BioAssay data set” (2004)
